Assays:
hTAS1R1 = target: T1, hTAS1R1 (Homo sapiens, UniProt Q7RTX1); assay: Calcium assay, subunit expressed alone; type: cell-based
T1 construct: UniProtKB number Q7RTX1–1); expressed in transfected cells; host or cells: HEK293 cells
T1 sequence (Q7RTX1 21-841): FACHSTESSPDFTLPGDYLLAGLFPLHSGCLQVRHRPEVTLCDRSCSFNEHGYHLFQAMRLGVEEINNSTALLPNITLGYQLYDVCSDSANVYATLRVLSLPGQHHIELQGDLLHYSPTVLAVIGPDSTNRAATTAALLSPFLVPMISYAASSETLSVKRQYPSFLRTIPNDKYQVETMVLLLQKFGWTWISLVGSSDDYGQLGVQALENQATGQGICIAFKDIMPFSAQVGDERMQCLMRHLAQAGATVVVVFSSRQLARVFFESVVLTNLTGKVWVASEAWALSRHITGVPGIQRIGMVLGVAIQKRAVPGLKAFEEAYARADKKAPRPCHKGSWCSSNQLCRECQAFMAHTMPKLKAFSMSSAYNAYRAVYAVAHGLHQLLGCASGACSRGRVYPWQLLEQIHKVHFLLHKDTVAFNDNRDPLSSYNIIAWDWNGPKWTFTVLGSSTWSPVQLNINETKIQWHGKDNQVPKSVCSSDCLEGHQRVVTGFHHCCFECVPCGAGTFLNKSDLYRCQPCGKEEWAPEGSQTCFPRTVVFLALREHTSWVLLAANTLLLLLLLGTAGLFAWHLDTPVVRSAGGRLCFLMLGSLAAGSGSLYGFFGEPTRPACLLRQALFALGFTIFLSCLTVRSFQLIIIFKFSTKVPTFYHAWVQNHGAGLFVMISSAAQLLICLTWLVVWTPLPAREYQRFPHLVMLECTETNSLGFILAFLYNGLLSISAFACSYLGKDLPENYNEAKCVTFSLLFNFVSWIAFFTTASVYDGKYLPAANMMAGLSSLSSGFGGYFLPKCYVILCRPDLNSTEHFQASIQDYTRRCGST
Description: HEK293T/17 cells (ATCC CRL-11268) were seeded into clear bottom black 96-well plates coated with poly-D-lysine at a density of 32500 cells/well in 100 μL of DMEM containing 4.5 g/L glucose and supplemented with penicillin/streptomycin, 2 mM GlutaMAX and 10 % dialyzed fetal bovine serum. The plates were incubated for 24 h at 37 °C and 7.3 % CO2 in a humidified atmosphere. After incubation, using Fugene® 4 K (0.46 μL/well, Promega, Illkirch, France), the cells were transiently transfected with pcDNA3-hTAS1R1-WT (60 ng/well) or TAS1R1 mutants, pcDNA4-rTAS1R3 (60 ng/well), pcDNA3-Gα15i2 (10 ng/well), and pGP-CMV-GCaMP6s (Addgene #40753; 10 ng/well) as a genetically encoded calcium indicator. Twenty-four hours after transfection, the HEK293T/17 cells were rinsed with 100 μL of C1 buffer (130 mM NaCl, 5 mM KCl, 10 mM HEPES, 2 mM CaCl2, and 5 mM sodium pyruvate, pH 7.4). For each molecule tested, a semi-logarithmic concentration range was created consisting of seven increasing concentrations and a negative control (zero dose) made of buffer C1. […] After 20 s of basal fluorescence calcium measurement, the cells were stimulated via automatic injection of a range of compounds in eight wells, and the signal emission was recorded for an additional 70 s, via a FlexStation 3® fluorometric microplate reader (Molecular Devices, San Jose, CA, USA). […] The emitted fluorescence was measured at a wavelength of 510 nm after excitation at 488 nm. […] For each well, the decrease in the raw fluorescence as the relative fluorescence changed was calculated as ΔF/F0. Replicates were averaged for the wells subjected to the same stimuli, the background signal was subtracted, and the fluorescence changes in mock-transfected cells were subtracted. The half-maximal effective concentration (EC50) and maximal signal amplitude (max ∆F/F0) were calculated via non-linear regression of the sigmoidal function four-parameter logistic equation [f(x) = min + (max − min)/(1 + (x/EC50)^nH)] via SigmaPlot 15.0 software (Grafiti LLC, Palo Alto, CA, USA). […]

hTAS1R1/rTAS1R3 = target: T2, hTAS1R1/rTAS1R3 (UniProt Q7RTX1+Q923K1); assay: Calcium assay (GCaMP6s, Gα15i2) in transiently transfected HEK293T/17 cells; type: cell-based, human, rat
T2 construct: UniProtKB number Q7RTX1–1); The cDNA coding region of rTAS1R3 was synthesized with optimized-codon usage for human expression; expressed in transfected cells; host or cells: HEK293T/17 (ATCC CRL-11268)
T2 sequence (Q7RTX1 21-841): T1 sequence (Q7RTX1 21-841)
T2 sequence (Q923K1 21-858): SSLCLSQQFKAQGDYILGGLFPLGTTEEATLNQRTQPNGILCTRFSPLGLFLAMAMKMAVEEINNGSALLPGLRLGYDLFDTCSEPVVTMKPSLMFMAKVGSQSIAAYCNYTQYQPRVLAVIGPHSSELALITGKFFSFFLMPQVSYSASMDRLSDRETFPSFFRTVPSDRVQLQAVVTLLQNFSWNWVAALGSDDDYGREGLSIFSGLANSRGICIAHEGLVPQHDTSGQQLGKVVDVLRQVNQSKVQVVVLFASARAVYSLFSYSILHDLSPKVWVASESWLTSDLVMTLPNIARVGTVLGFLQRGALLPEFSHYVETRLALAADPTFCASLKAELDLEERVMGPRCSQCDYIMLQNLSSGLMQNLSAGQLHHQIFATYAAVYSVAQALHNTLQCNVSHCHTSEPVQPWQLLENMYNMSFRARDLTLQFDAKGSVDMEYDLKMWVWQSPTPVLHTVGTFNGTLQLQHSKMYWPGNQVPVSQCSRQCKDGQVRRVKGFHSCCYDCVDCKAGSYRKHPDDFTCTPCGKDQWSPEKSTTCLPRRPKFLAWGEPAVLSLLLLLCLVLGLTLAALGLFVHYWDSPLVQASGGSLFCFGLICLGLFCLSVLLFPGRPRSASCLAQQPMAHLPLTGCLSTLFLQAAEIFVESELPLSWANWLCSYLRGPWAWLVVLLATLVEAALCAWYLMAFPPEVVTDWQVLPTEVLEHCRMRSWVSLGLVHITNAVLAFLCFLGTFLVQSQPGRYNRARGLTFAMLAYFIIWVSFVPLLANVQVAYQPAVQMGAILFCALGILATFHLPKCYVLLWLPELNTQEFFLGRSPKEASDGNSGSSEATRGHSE
Description: To this end, hTAS1R1/rTAS1R3 and the chimeric G protein Gα15i2 were transiently expressed in HEK293T cells. Cellular responses were assessed via calcium imaging using a fluorescent protein calcium biosensor (GCaMP6s) and compared with those of mock-transfected cells.

Row | Compound | effect of 10 mM GSH on the response to S807 (hTAS1R1) | response of transfected cells (hTAS1R1; GSH alone, Fig. 5A) | maximal response, fold lower than that elicited by L-Glu (hTAS1R1/rTAS1R3) | EC50 (hTAS1R1/rTAS1R3; GSH alone, Fig. 6C) | EC50 (hTAS1R1/rTAS1R3; GSH alone, Fig. 6D) | EC50 (hTAS1R1/rTAS1R3; GSH alone, Fig. 6E) | EC50 (hTAS1R1/rTAS1R3; WT, GSH) | Max ∆F/F0 (hTAS1R1/rTAS1R3; WT, GSH) | R1 = mutant EC50/WT EC50 (hTAS1R1/rTAS1R3; WT, GSH) | EC50 (hTAS1R1/rTAS1R3; WT, GSH alone, Fig. 4C) | EC50 (hTAS1R1/rTAS1R3; agonist alone, Fig. 1, Fig. S2) | max ∆F/F0 (hTAS1R1/rTAS1R3; agonist alone, Fig. 1, Fig. S2) | effect on the dose-response curves to L-Glu (hTAS1R1/rTAS1R3; in the presence of 3 mM and 10 mM GSH, Fig. 6F) | EC50 (hTAS1R1; S807 alone, Fig. 5D) | EC50 (hTAS1R1/rTAS1R3; WT, S807 alone, Fig. 4E)
1 | N[C@@H](CCC(=O)N[C@@H](CS)C(=O)NCC(=O)O)C(=O)O [GSH, γ-L-glutamyl-L-cysteinyl-glycine] | not increased | did not respond | 2.2 fold | 3430 ± 98 µM | 4360 ± 308 µM | 3210 ± 138 µM | 2520 ± 238 µM | 0.23 ± 0.01 | 1.0 | 4250 ± 500 µM | 2150 ± 87 µM | 0.46 ± 0.01 | a leftward shift and a decrease in the EC50 values | – | –
2 | CCCC(CCC)NC(=O)c1ccc2c(c1)OCO2 [S807, N-(heptan-4-yl)benzo[d][1,3]dioxole-5-carboxamide, reference compound] | – | – | – | – | – | – | – | – | – | – | 1.02 ± 0.08 µM | 1.87 ± 0.03 | – | 0.89 ± 0.13 µM | 1.25 ± 0.12 µM
